This experiment deals with T1, human 5HT1A-serotonergic receptor (Homo sapiens, UniProt P08908).
T1 construct: expressed in transfected cells; host or cells: HeLa (human cell line), stably transfected; cell membranes used
T1 sequence (P08908 1-422): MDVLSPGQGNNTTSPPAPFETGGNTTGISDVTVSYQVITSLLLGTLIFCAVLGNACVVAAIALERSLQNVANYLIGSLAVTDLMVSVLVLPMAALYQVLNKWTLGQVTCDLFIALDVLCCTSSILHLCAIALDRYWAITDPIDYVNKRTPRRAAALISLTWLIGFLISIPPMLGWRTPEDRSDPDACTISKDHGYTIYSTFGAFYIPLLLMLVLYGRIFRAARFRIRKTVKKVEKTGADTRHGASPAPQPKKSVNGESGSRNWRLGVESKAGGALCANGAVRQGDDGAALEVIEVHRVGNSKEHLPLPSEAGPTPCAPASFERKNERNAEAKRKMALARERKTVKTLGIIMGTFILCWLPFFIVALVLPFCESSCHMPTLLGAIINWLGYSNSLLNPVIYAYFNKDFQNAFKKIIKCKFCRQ
Nature of the experiment: Radioligand binding to recombinant 5-HT1A receptors. The conditions noted are these: [3H]8-OH-DPAT 1 nM, membranes of HeLa cells with human 5-HT1A receptor; Ki from IC50 by Cheng & Prusoff; read-out: Binding affinity for 5HT1A receptors, Ki. The gist of the method:
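Membranes from HeLa cells stably expressing human 5-HT1A incubated 30 min at 30 °C with 1 nM [3H]8-OH-DPAT and compound in 50 mM Tris-HCl pH 7.4, 2.5 mM MgCl2, […] pargyline. Nonspecific binding defined with 10 μM 5-HT; filtration readout, IC50 converted to Ki via Cheng–Prusoff.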

In US20030162777A1, “Novel N-acylated heterocycles” (Recordati S.A., priority 2001, published 2003) one finds Ki data, which are given here for 31 molecules.

The structures appear in SMILES notation.

Consider `CC(C)(C)NC(=O)N1c2ccccc2CCC1CN1CCN(c2cccc3[nH]ccc23)CC1` (stereo not shown) [Example 69A12, 1-[1-(1,1-Dimethylethylaminocarbonyl)-1,2,3,4-tetrahydroquinoline-2-ylmethyl]-1-(4-indolyl)piperazine], for which the Ki came out at 2.1 nM.

With `COc1ccc(NC(=O)N2c3ccccc3CCC2CN2CCN(c3cccc4[nH]ccc34)CC2)cc1` (stereo not shown) [Example 69A13, 1(4-Indolyl)-4-[1-(4-methoxyphenylaminocarbonyl)-1,2,3,4-tetrahydroquinoline-2-ylmethyl]piperazine], the Ki was 21.3 nM.

With `Cc1ccccc1NC(=O)N1c2ccccc2CCC1CN1CCN(c2cccc3[nH]ccc23)CC1` (stereo not shown) [Example 69A, 1-(4-Indolyl)-4-[1-(2-methylphenylaminocarbonyl)-1,2,3,4-tetrahydroquinoline-2-ylmethyl]piperazine], the Ki is 7.3 nM.

As to `O=S(=O)(c1cccs1)N1c2ccccc2CCC1CN1CCN(c2cccc3[nH]ccc23)CC1` (stereo not shown) [Example 70A1, 1-(4-Indolyl)-4-[1-(2-thienylsulphonyl)-1,2,3,4-tetrahydroquinoline-2-ylmethyl]piperazine], the inhibitory constant (Ki) stood at 18.8 nM.

As for `COc1ccc(S(=O)(=O)N2c3ccccc3CCC2CN2CCN(c3cccc4[nH]ccc34)CC2)cc1` (stereo not shown) [Example 70A2, 1(4-Indolyl)-4-[1-(4-methoxyphenylsulphonyl)-1,2,3,4-tetrahydroquinoline-2-ylmethyl]piperazine], the Ki was 18.8 nM.

`Cc1ccc(S(=O)(=O)N2c3ccccc3CCC2CN2CCN(c3cccc4[nH]ccc34)CC2)cc1` (stereo not shown) [Example 70A3, 1(4-Indolyl)-4-[1-(4-methylphenylsulphonyl)-1,2,3,4-tetrahydroquinoline-2-ylmethyl]piperazine]: the Ki was determined as 15.2 nM.

Take `O=S(=O)(c1ccc(F)cc1)N1c2ccccc2CCC1CN1CCN(c2cccc3[nH]ccc23)CC1` (stereo not shown) [Example 70A4, 1-[1-(4-Fluorophenylsulphonyl)-1,2,3,4-tetrahydroquinoline-2-ylmethyl]-4-(4-indolyl)piperazine]: the Ki was determined as 20.9 nM.

For the molecule `N#Cc1ccc(S(=O)(=O)N2c3ccccc3CCC2CN2CCN(c3cccc4[nH]ccc34)CC2)cc1` (stereo not shown) [Example 70A5, 1-[1-(4-Cyanophenylsulphonyl)-1,2,3,4-tetrahydroquinoline-2-ylmethyl]-4-(4-indolyl)piperazine], the Ki amounted to 40.3 nM.

Regarding `O=S(=O)(Cc1ccccc1)N1c2ccccc2CCC1CN1CCN(c2cccc3[nH]ccc23)CC1` (stereo not shown) [Example 70A6, 1-(4-Indolyl)-4-(1-phenylmethylsulphonyl-1,2,3,4-tetrahydroquinoline-2-ylmethyl)piperazine], the Ki came to 4.7 nM.

Turning to `O=S(=O)(c1ccccc1)N1c2ccccc2CCC1CN1CCN(c2cccc3[nH]ccc23)CC1` (stereo not shown) [Example 70A, 1-(4-Indolyl)-1-[1-phenylsulphonyl-1,2,3,4-tetrahydroquinoline-2-ylmethyl]piperazine], the Ki was determined as 7.8 nM.

Take `CC(C)(C)OC(=O)NCCC(=O)N1c2ccccc2CCC1CN1CCN(c2cccc3[nH]ccc23)CC1` (stereo not shown) [Example 71A1, 1-[1-(3-tert-Butoxycarbonylamino)propionyl-1,2,3,4-tetrahydroquinoline-2-ylmethyl]-4-(4-indolyl)piperazine]: the Ki came out at 15.2 nM.

With `CC(C)(C)OC(=O)n1cc(CC(=O)N2c3ccccc3CCC2CN2CCN(c3cccc4[nH]ccc34)CC2)c2ccccc21` (stereo not shown) [Example 71A2, 1-[1-[2-(1-tert-Butoxycarbonylindol-3-yl)acetyl]-1,2,3,4-tetrahydroquinoline-2-ylmethyl]-4-(4-indolyl]piperazine], the Ki came to 92 nM.

With `CC(C)(C)OC(=O)N1CCC(C(=O)N2c3ccccc3CCC2CN2CCN(c3cccc4[nH]ccc34)CC2)CC1` (stereo not shown) [Example 71A3, 1-[1-[4-(1-tert-Butoxycarbonylpiperidino)carbonyl]-1,2,3,4-tetrahydroquinoline-2-ylmethyl]-4-(4-indolyl)piperazine], the Ki was found to be 40.6 nM.

For the molecule `CC(C)(C)OC(=O)N1CCC[C@@H]1C(=O)N1c2ccccc2CCC1CN1CCN(c2cccc3[nH]ccc23)CC1` (stereo partly drawn) [Example 71A4, 1-[1-(1-tert-Butoxycarbonyl-(2R)-pyrrolidin-2yl)carbonyl-1,2,3,4-tetrahydroquinoline-2-ylmethyl]-4-(4-indolyl)piperazine], the Ki was 45.9 nM.

As to `CC(C)(C)OC(=O)N1CCC[C@H]1C(=O)N1c2ccccc2CCC1CN1CCN(c2cccc3[nH]ccc23)CC1` (stereo partly drawn) [Example 71A5, 1-[1-(1-tert-Butoxycarbonyl-(2S)-pyrrolidin-2yl)carbonyl-1,2,3,4-tetrahydroquinoline-2-ylmethyl]-4-(4-indolyl)piperazine], the Ki stood at 45 nM.

For the molecule `CC(C)(C)OC(=O)NCC(=O)N1c2ccccc2CCC1CN1CCN(c2cccc3[nH]ccc23)CC1` (stereo not shown) [Example 71A, 1-[1-(2-tert-Butoxycarbonylamino)acetyl-1,2,3,4-tetrahydroquinoline-2-ylmethyl]-4-(4-indolyl)piperazine], the Ki stood at 35.7 nM.

Take `O=C(C1CCCCC1)N1c2ccccc2CCC1CN1CCC(c2ccccc2)CC1` (stereo not shown) [Example 72A3, 1-(1-Cyclohexanecarbonyl-1,2,3,4-tetrahydroquinolin-2-ylmethyl)-4-phenylpiperidine]: the Ki came out at 47.2 nM.

For `O=C(C1CCCCC1)N1c2ccccc2CCC1CN1CCN(c2ncccc2C(F)(F)F)CC1` (stereo not shown) [Example 72A6, 1-(1-Cyclohexanecarbonyl-1,2,3,4-tetrahydroquinolin-2-ylmethyl)-4-(3-trifluoromethylpyridin-2-yl)piperazine], the inhibition constant Ki stood at 3.2 nM.

Consider `O=C(C1CCCCC1)N1c2ccccc2CCC1CN1CCN(c2ccc(F)cc2[N+](=O)[O-])CC1` (stereo not shown) [Example 72A7, 1-(1-Cyclohexanecarbonyl-1,2,3,4-tetrahydroquinolin-2-ylmethyl)-4-(4-fluoro-2-nitrophenyl)piperazine], for which the Ki was 4.6 nM.

Consider `O=C(C1CCCCC1)N1c2ccccc2CCC1CN1CCN(c2cccc(Cl)c2Cl)CC1` (stereo not shown) [Example 72A8, 1-(1-Cyclohexanecarbonyl-1,2,3,4-tetrahydroquinolin-2-ylmethyl)-4-(2,3-dichlorophenyl)piperazine], for which the Ki stood at 31.6 nM.

In the case of `CCc1ccccc1N1CCN(CC2CCc3ccccc3N2C(=O)C2CCCCC2)CC1` (stereo not shown) [Example 72A11, 1-(1-Cyclohexanecarbonyl-1,2,3,4-tetrahydroquinolin-2-ylmethyl)-4-(2-ethylphenyl)piperazine], the inhibition constant (Ki) was 7.7 nM.

Consider `N#Cc1ccccc1N1CCN(CC2CCc3ccccc3N2C(=O)C2CCCCC2)CC1` (stereo not shown) [Example 72A13, 1-(2-Cyanophenyl)-4-(1-cyclohexanecarbonyl-1,2,3,4-tetrahydroquinolin-2-ylmethyl)piperazine], for which the Ki worked out at 7.8 nM.

As for `O=C(C1CCCCC1)N1c2ccccc2CCC1CN1CCN(c2cccc(O)c2)CC1` (stereo not shown) [Example 72A17, 1-(1-Cyclohexanecarbonyl-1,2,3,4-tetrahydroquinolin-2-ylmethyl)-4-(3-hydroxyphenyl)piperazine], the Ki was found to be 38.5 nM.

For the molecule `O=C(C1CCCCC1)N1c2ccccc2CCC1CN1CCN(c2ccc(F)cc2F)CC1` (stereo not shown) [Example 72A18, 1-(1-Cyclohexanecarbonyl-1,2,3,4-tetrahydroquinolin-2-ylmethyl)-4-(2,4-difluorophenyl)piperazine], the Ki was 11 nM.

Turning to `Cc1cccc(N2CCN(CC3CCc4ccccc4N3C(=O)C3CCCCC3)CC2)n1` (stereo not shown) [Example 72A20, 1-(1-Cyclohexanecarbonyl-1,2,3,4-tetrahydroquinolin-2-ylmethyl)-4-(6-methylpyridin-2-yl)piperazine], the Ki was found to be 5.4 nM.

For `O=C(C1CCCCC1)N1c2ccccc2CCC1CN1CCN(c2cccc(Cl)c2)CC1` (stereo not shown) [Example 72A23, 1-(3-Chlorophenyl)-4-(1-cyclohexanecarbonyl-1,2,3,4-tetrahydroquinolin-2-ylmethyl)piperazine], the Ki amounted to 24.6 nM.

With `COc1cccc(N2CCN(CC3CCc4ccccc4N3C(=O)C3CCCCC3)CC2)c1` (stereo not shown) [Example 72A25, 1-(1-Cyclohexanecarbonyl-1,2,3,4-tetrahydroquinolin-2-ylmethyl)-4-(3-methoxyphenyl)piperazine], the Ki turned out to be 15.3 nM.

As for `O=C(C1CCCCC1)N1c2ccccc2CCC1CN1CCN(c2ccc(F)cc2)CC1` (stereo not shown) [Example 72A26, 1-(1-Cyclohexanecarbonyl-1,2,3,4-tetrahydroquinolin-2-ylmethyl)-4-(4-fluorophenyl)piperazine], the Ki is 19.6 nM.

On to `Cc1ccc(Cl)cc1N1CCN(CC2CCc3ccccc3N2C(=O)C2CCCCC2)CC1` (stereo not shown) [Example 72A29, 1-(5-Chloro-2-methylphenyl)-4-(1-cyclohexanecarbonyl-1,2,3,4-tetrahydroquinolin-2-ylmethyl)piperazine], for which the Ki came out at 28.1 nM.

For `Cc1cccc(N2CCN(CC3CCc4ccccc4N3C(=O)C3CCCCC3)CC2)c1` (stereo not shown) [Example 72A30, 1-(1-Cyclohexanecarbonyl-1,2,3,4-tetrahydroquinolin-2-ylmethyl)-4-(3-methylphenyl)piperazine], the Ki turned out to be 10.9 nM.

Turning to `O=C(C1CCCCC1)N1c2ccccc2CCC1CN1CCC(c2cccc(F)c2)CC1` (stereo not shown) [Example 72A39, 1-(1-Cyclohexanecarbonyl-1,2,3,4-tetrahydroquinolin-2-ylmethyl)-4-(3-fluorophenyl)piperidine], the Ki worked out at 39.1 nM.

The Ki is a measure of affinity in units of concentration, obtained from inhibition or displacement.
